# Measurements: patent publication US20260183408A1, “POLYPEPTIDE AND USE THEREOF” (SHENZHEN CHENYANG BIOLOGICAL TECHNOLOGY CO., LTD, priority 2022, published 2026)
# Experiments:
# SPS mice = assay: Corticosterone, cortisol, DA and 5-HT levels in hippocampus and cortex; type: in vivo, mouse
# CRS mice [1] = assay: Tail suspension test (TST); type: in vivo, mouse; settings: single intraperitoneal 3 nmol/g, 1 hour after treatment, compared with TAT-treated mice (FIG. 12)
# Procedure: (§1) The C57BL/6J mice were horizontally fixed for 6 h (from 10 to 16 o'clock) in a first acrylic restraint which is cylindrical and flat-bottomed (25×90 mm) every day for 2 weeks. The filter had several slots which could adapt to the size of each mouse to firmly restrain the mouse and inhibit body movements of the limb and trunk without causing pain. Immediately after being restrained, the mice were sent back to their cages. Unrestrained mice (control) stayed in their cages when no CRS procedure was performed. Neither the control mice nor the CRS mice could have access to food and water during the CRS exposure.
# (§2) The C57BL/6J mice were subjected to various stress including restraint (for 4 h), cage tilting (for 45 times, with 12 h each time), light-dark cycle reversal (once), flash (for 12 h), and dirty cage (for 2 times, with 14 h each time). The protocol lasted 6 weeks. Control mice were not subjected to corresponding stress.
# (§3) The mice were treated with TAT or TAT-D2R-KL (single intraperitoneal administration at 3 nmol/g in both cases). […]
# TST: The mice were suspended with a tape to a position 40 cm above the floor within a rectangular compartment (length 55 cm× width 20 cm× depth 11.5 cm). A video was recorded for a total of 5 minutes, and the immobility time was recorded. […]
# D2R/5-HT2CR complex = molecular target: T1, D2R/5-HT2CR complex (Homo sapiens, UniProt P28335); assay: Co-immunoprecipitation / Western blotting of polypeptide-treated 293T cells; type: cell-based; settings: 293T cells transfected with 5-HT2CR and D2R, in the presence of 5-HT2CR and D2R agonists, TAT as control (FIG. 6)
# T1 construct: host or cells: human 293T cells
# T1 sequence (P28335 33-458): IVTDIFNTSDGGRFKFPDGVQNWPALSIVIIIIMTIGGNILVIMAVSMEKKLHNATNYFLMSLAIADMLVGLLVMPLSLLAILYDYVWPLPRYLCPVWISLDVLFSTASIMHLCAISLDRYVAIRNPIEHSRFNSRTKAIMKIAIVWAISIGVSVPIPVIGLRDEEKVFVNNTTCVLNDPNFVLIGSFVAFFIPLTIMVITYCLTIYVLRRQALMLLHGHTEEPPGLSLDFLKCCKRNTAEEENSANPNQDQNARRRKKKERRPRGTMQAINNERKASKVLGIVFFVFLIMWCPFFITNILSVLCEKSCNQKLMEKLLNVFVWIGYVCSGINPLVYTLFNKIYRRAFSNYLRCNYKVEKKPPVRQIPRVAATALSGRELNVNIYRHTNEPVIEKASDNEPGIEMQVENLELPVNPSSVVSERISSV
# Procedure: Co-immunoprecipitation was performed using protein samples (with 100-500 μg protein) from the hippocampal tissue of the Balb/c mice. Mouse monoclonal antibodies against both 5-HT2CR and D2R, D2R, or 5-HT2CR were used for precipitation with 25 μl of the slurry of protein A/G+agarose beads (SantaCruz Biotechnology, sc-2001).
# Western blotting analysis after precipitation: Denatured (at 100° C. for 10 min) proteins were separated on an 8% SDS-PAGE gel, then transferred to a nitrocellulose membrane, which was then blocked with skim milk in TBST (Tris-buffered saline with 0.1% Tween 20). Next, incubation was carried out with the primary antibodies at 4° C. overnight. Finally, treatment with an HRP-conjugated secondary antibody were performed for 1 h, signals were detected using the ECL UltraSignal chemiluminescence kit (4A Biotech, cat. no. 4AW011-500), and the bands were analyzed for densities using the Image Lab software.
# Next, the 293T cells were treated with TAT-D2R-KL in the presence of 5-HT2CR and D2R agonists, while treatment with TAT was used as a control. The specific process was shown in FIG. 5, where the human 293T cell line was cultured in a high-glucose modified Eagle's medium (DMEM) supplemented with 10% fetal bovine serum (FBS). The cells were maintained in an atmosphere of 95% air and 5% carbon dioxide in an incubator at 37° C. […]
# CRS mice [2] = assay: Elevated plus maze (EPM) test; type: in vivo, mouse; settings: single intraperitoneal 3 nmol/g, 1 hour later (FIG. 14)
# Procedure: as §1
# In order to evaluate the anti-anxiety-like effect of the polypeptide of the present invention, a CRS mouse model was established using the method in Example 6. […]
# EPM: The device consisted of two open arms (25 cm×8 cm) and two closed arms (25 cm×8 cm) with the intersection as the central area (8 cm×8 cm), elevated 40 cm above the ground. One hour after the polypeptide treatment, the mice were placed in the central area facing an open arm, and their free movements were recorded for 5 min. […] The time spent in an open arm, the time spent in a closed arm, and the total moving distance of the mice were recorded.
# CRS mice [3] = assay: Forced swimming test (FST); type: in vivo, mouse; settings: single intraperitoneal 3 nmol/g, 1 hour after treatment, compared with TAT-treated mice (FIG. 12)
# Procedure: as §1, §2, §3
# FST: The mice were placed in a cylinder (having a height of 70 cm and a diameter of 30 cm) made of organic glass and filled with water (with water temperature at 23±1° C.), wherein the water level was more than 30 cm from the bottom. The mice were recorded in video for 5 min, then the video was analyzed, and the immobility time was recorded. […]
substance,measurement,setting,value
TAT-D2R-KL: C-terminus of the KL (K226-L240) region of D2R fused to the transduction domain of HIV-1 Tat protein (SEQ ID NO: 5),level of cortisol,SPS mice; hippocampus and cortex of SPS mice (FIG. 9),did not significantly change
same,level of DA,SPS mice; hippocampus and cortex of SPS mice (FIG. 10),did not significantly change
same,elevated corticosterone level,SPS mice; hippocampus of SPS mice (FIG. 8),significantly reduced
same,upregulated 5-HT,SPS mice; hippocampus of SPS mice (FIG. 11),did not reduce
same,immobility time (TST),CRS mice [1],significantly reduced
same,interaction between 5-HT2CR and D2R,D2R/5-HT2CR complex,significantly reduced
same,time spent in an open arm,CRS mice [2],significantly increased
same,immobility time (FST),CRS mice [3],significantly reduced
